In patent US10239878B2, “Macrocyclic ligands with pendant chelating moieties and complexes thereof” (LUMIPHORE, INC., priority 2016, dated 2019):
Structures can show the parent of a compound that is named as a salt. Marks after values point to notes of the source that are not given here.

Key:
[1] = Thorium(IV) complexes; ligand denticity bi- to deca-dentate; cited from earlier work
[2] = in 0.05 M sulfuric acid; cited from earlier work
[3] = Photophysical characterization of Eu complexes (UV-vis absorption, quantum yield, lifetime); assay type: physicochemical; settings: for ε260/ε at λmax / ε280/ε at λmax / λmax / Φtotal at 365 nm excitation: TBS buffer; for ε260/ε at λmax / ε280/ε at λmax / λmax: pH 7.6; for Φtotal at 365 nm excitation: quinine sulfate as quantum yield standard; for Lifetime: luminescence, HPLC purified Eu complexes
Method: The europium complexes of ligands 16, 29, 33, 40, and 43 were prepared by separately dissolving each ligand (2 mg) into methanol (200 μL). Excess europium chloride hexahydrate (˜5 equivalents) was dissolved in methanol (200 μL) and the full volume was added to each of the ligand solutions. The solvent was removed, and the residue was dissolved into DMF (50 μL). The europium complexes were then purified by semi-prep HPLC on an Agilent 1260 Infinity instrument using an Eclipse XDB-C18 column (5 μm, 9.4×250 mm). The mobile phase was 10 to 30% acetonitrile in water containing 0.1% trifluoroacetic acid. The volatiles were removed from the HPLC eluents under vacuum, and the residues were separately dissolved into methanol (500 μL) to give methanolic stock solutions of each europium complex with greater than 98% purity. A few drops of these methanolic solutions were evaporated to dryness, and then the residue was dissolved into TBS buffer at a concentration of ca. 3 μM to make aqueous stock solutions (20 mL) with an absorbance of 0.05 (1 cm path length) at 365 nm. Five dilutions (1/6, 2/6, 3/6, 4/6, and 5/6) were made from these aqueous stock solutions to yield six samples with evenly spaced concentrations (3 mL volume each). Quinine sulfate dissolved in 0.05 M sulfuric acid was similarly diluted to a final absorbance of 0.05 at 365 nm, and this solution was similarly (1/6, 2/6, 3/6, 4/6, and 5/6) diluted to afford six quinine sulfate reference samples of evenly spaced concentration. Quinine sulfate in 0.05 M sulfuric acid was used as the quantum yield standard (Φ=0.508). By measuring the absorbance and luminescence of these dilute solutions, the quantum yields of the new Eu complexes were determined. A 5 cm path-length quartz cell was used to measure the absorbance of these dilute solutions in order to improve the UV-vis signal-to-noise. Steady state photoluminescence measurements were collected in a 1 cm fluorescence cuvette at 365 nm excitation wavelength, 1 nm resolution, 10 nm excitation slit width, 1 nm emission slit width, and 0.2 sec integration time on an instrument that has been described elsewhere (D'Aléo, A.; Moore, E. G.; Szigethy, G.; Xu, J.; Raymond, K. N. Inorg. Chem. 2009, 48, 9316.). Absorption spectra were measured at 1 nm resolution, and the absorbance of each sample was taken as the average absorbance measured from 360-370 nm to reflect the 10 nm excitation slit width used for luminescence measurements. The data derived from these experiments, and from the titration experiments in example 11 are tabulated below.

[4] = Europium titration experiments for determining extinction coefficients; assay type: physicochemical; settings: for ε at λmax (starred values): assumed equal to those measured by titration for 16 · Eu or 43 · Eu; for extinction coefficient: UV-vis titration with europium chloride, TBS buffer pH 7.6, at lambda max; for lambda max: UV-vis titration, TBS buffer; for ε at λmax: by europium titration, TBS buffer pH 7.6
Method: In order to determine accurate extinction coefficients for 16 and 16⋅Eu, titration experiments using europium chloride as the titrant were performed. Europium chloride hexahydrate (13.22 mg, 0.03608 mmol) was dissolved into 5 mM citrate buffer (pH=4) using a 100 mL volumetric flask to give a 0.3608 mM europium chloride solution, which was then titrated into a 0.5 mL solution of 16 in TBS buffer (Tris-buffered saline, 50 mM Tris, 150 mM NaCl, pH=7.6) using 5 μL aliquots. The UV-vis spectra were adjusted for the increase in solvent volume due to each injection. The results of the UV-vis titration are plotted in FIG. 3.
The volume of europium chloride corresponds to 16.70 nmol of europium, meaning the starting concentration of ligand 16 was 33.40 μM. […] These absorbance and concentration values yield extinction coefficients of 13,600 M^−1 cm^−1 and 14,300 M^−1 cm^−1 for the ligand 16 and the complex 16⋅Eu respectively.
In order to determine accurate extinction coefficients for 43 and 43⋅Eu, titration experiments using europium chloride as the titrant were performed. Europium chloride hexahydrate (47.58 mg, 0.1299 mmol) was dissolved into 50 mM citrate buffer (pH=4) using a 10 mL volumetric flask to give a 12.99 mM europium chloride solution, which was then transferred to a 100 mL volumetric flask and diluted 1:10 with water. The resulting 1.299 mM europium chloride solution (in 5 mM citrate buffer) was then titrated into a 1 mL solution of 43 in TBS buffer using 5 μL aliquots. The UV-vis spectra were adjusted for the increase in solvent volume due to each injection. The results of the UV-vis titration are plotted in FIG. 4.
The volume of europium chloride corresponds to 47.46 nmol of europium, meaning the starting concentration of ligand 43 was 47.46 μM. […] These absorbance and concentration values yield extinction coefficients of 13,000 M^−1 cm^−1 and 12,800 M^−1 cm^−1 for the ligand and complex respectively.
Titration of ligand 43 was also performed by luminescence (FIG. 5), monitoring the europium signal at 612 nm upon photoexcitation of the solution at 340 nm. The ligand solution used for the UV-vis titration of 43 mentioned above was first diluted 1:10 in TBS buffer. Similarly, the 1.299 mM stock europium solution was separately diluted 1:10 with water. […] The 32.99 μL equivalence point gives extinction coefficients of 14,400 M^−1 cm^−1 at 383 nm and 14,200 M^−1 cm^−1 at 357 nm for 43 and 43⋅Eu respectively. Averaging the values from both UV-vis and luminescence titration experiments of 43 yields extinction coefficients of 13,700 M^−1 cm^−1 at 383 nm and 13,500 M^−1 cm^−1 at 357 nm for 43 and 43⋅Eu respectively.

[5] = 250 mM DTPA competition experiments (kinetic stability of Eu complexes); assay type: physicochemical
Text: From these experiments, it is clear that 43⋅Eu is remarkably stable to a wide range of competitive metal ions and chelators. The competitor concentrations mentioned above are a good way to assess the kinetic stability of the complex in various assay conditions. DTPA is an exceptionally good ligand for lanthanide ions, and thus it is not typically used in practical assays. However, DTPA competition offers an excellent way to benchmark the kinetic stability of the complexes reported here. […] In order to compare the kinetic stability of the complexes reported here, a 750 mM stock solution (25 mL) of DTPA was prepared by dissolving DTPA (7.375 g, 18.75 mmol) into water (20 mL) containing potassium hydroxide (5.26 g, 93.75 mmol). The pH of the DTPA solution was adjusted to pH=7.6 by addition of concentrated hydrochloric acid, and then the solution was diluted to a final volume of 25 mL to give a 750 mM DTPA stock solution at pH=7.6. HPLC purified europium complexes of 16, 29, 33, 40, and 43 were separately diluted to 11 μM in TBS buffer, pH=7.6. For each DTPA competition experiment, 1 mL of the 750 mM DTPA solution was added to 2 mL of the 11 μM europium complex solution. The luminescence at 612 nm (365 nm excitation) was monitored for these five separate solutions containing 250 mM DTPA and 7.1 μM of each europium complex as a function of time.

For `CC(=O)CC(C)=O` [Acac], the “Log K1” value [1] is listed as 7.85.
In the case of `O=C(O)CN(CC(=O)O)CC(=O)O` [NTA], the “Log K1” value [1] is listed as 16.9.
In the case of `C=C[C@H]1C[N@@]2CC[C@H]1C[C@H]2[C@H](O)c1ccnc2ccc(OC)cc12` [Quinine sulfate], the “quantum yield standard Φ” value [2] is listed as 0.508.
In the case of `O=C(O)CN(CCN(CC(=O)O)CC(=O)O)CC(=O)O` [EDTA], the “Log K1” value [1] is given as 25.3.
For `O=C(O)CN(CCO)CCN(CC(=O)O)CC(=O)O` [HEDTA], the “Log K1” value [1] is given as 18.5.
With `O=C1NCCCN(C(=O)c2cccc(=O)n2[O-])CCCCN(C(=O)c2cccc(=O)n2[O-])CCCNC(=O)c2ccc(n([O-])c2=O)C(=O)N[C@@H]2COC[C@@H]2NC(=O)c2ccc1c(=O)n2[O-].[Eu+3]` [40⋅Eu] the “ε260/ε at λmax” value [3] was 1.51, the “ε280/ε at λmax” value [3] was 1.19 and the λmax [3] was 357 nm. The “Φtotal at 365 nm excitation” value [3] was 28.2%, the Lifetime [3] was 729 μs and the “ε at λmax (starred values)” value [4] was 13,500* M^−1cm^−1.
For `NCCOCCNC(=O)C1CCCN(C(=O)c2cccc(=O)n2[O-])CCCNC(=O)c2ccc(n([O-])c2=O)C(=O)NCCNC(=O)c2ccc(c(=O)n2[O-])C(=O)NCCCN1C(=O)c1cccc(=O)n1[O-].[Eu+3]` (stereo not drawn) [33⋅Eu], the “ε260/ε at λmax” value [3] was 1.40, the “ε280/ε at λmax” value [3] was 1.14 and the λmax [3] was 363 nm. For the same compound, the “Φtotal at 365 nm excitation” value [3] was 30.0%, the Lifetime [3] was 723 μs and the “ε at λmax (starred values)” value [4] was 14,300* M^−1cm^−1. The “kinetic stability relative to m-tetrahydrofurandiamine-based macrocycles (40⋅Eu and 43⋅Eu)” value [5] was ~5 × and the “reduction in kinetic stability upon introduction of the spermine-based sidearm” value ([5]; 33⋅Eu versus 16⋅Eu, 43⋅Eu versus 40⋅Eu) was “two fold”.
With `NCCCC[C@H]1CNC(=O)c2ccc(c(=O)n2[O-])C(=O)NCCCN(C(=O)c2cccc(=O)n2[O-])CCCCN(C(=O)c2cccc(=O)n2[O-])CCCNC(=O)c2ccc(n([O-])c2=O)C(=O)N1.[Eu+3]` [29⋅Eu] the “ε260/ε at λmax” value [3] was 1.42, the “ε280/ε at λmax” value [3] was 1.18 and the λmax [3] was 363 nm. The “Φtotal at 365 nm excitation” value [3] was 29.8%, the Lifetime [3] was 716 μs and the “ε at λmax (starred values)” value [4] was 14,300* M^−1cm^−1. The “kinetic stability relative to 43⋅Eu to challenge by DTPA” value [5] was “at least an order of magnitude” and the “kinetic stability relative to m-tetrahydrofurandiamine-based macrocycles (40⋅Eu and 43⋅Eu)” value [5] was ~5 ×.
In the case of `O=C(O)CN(CCN(CCN(CC(=O)O)CC(=O)O)CC(=O)O)CCN(CC(=O)O)CC(=O)O` [TTHA], the “Log K1” value [1] is given as 31.9.
For `O=C1NCCCN(C(=O)c2cccc(=O)n2O)CCCCN(C(=O)c2cccc(=O)n2O)CCCNC(=O)c2ccc(n(O)c2=O)C(=O)NCCNC(=O)c2ccc1c(=O)n2O` [Compound 16], the “ε260/ε at λmax” value [3] was 1.98, the “ε280/ε at λmax” value [3] was 1.27 and the λmax [3] was 382 nm. For the same compound, the extinction coefficient [4] was 13,600 M^−1 cm^−1, the lambda max [4] was 382 nm and the “ε at λmax” value [4] was 13,600 M^−1cm^−1.
With `O=C1NCCCN(C(=O)c2cccc(=O)n2[O-])CCCCN(C(=O)c2cccc(=O)n2[O-])CCCNC(=O)c2ccc(n([O-])c2=O)C(=O)NCCNC(=O)c2ccc1c(=O)n2[O-].[Eu+3]` [16⋅Eu] the “ε260/ε at λmax” value [3] was 1.40, the “ε280/ε at λmax” value [3] was 1.12 and the λmax [3] was 361 nm. The “Φtotal at 365 nm excitation” value [3] was 30.9%, the Lifetime [3] was 716 μs and the extinction coefficient [4] was 14,300 M^−1 cm^−1. The lambda max [4] was 361 nm and the “ε at λmax” value [4] was 14,300 M^−1cm^−1.
